Measurements from US5098898A, “Phospholipid derivatives” (Senju Pharmaceutical Co., Ltd., priority 1989, dated 1992).
Structures can show the parent of a compound that is named as a salt.

System: lipid peroxides (LPO) in rat brain homogenate
Assay: Antioxidant activity (Stocks' method): inhibition of lipid peroxide formation in brain homogenate supernatant, TBA method
Type: biochemical, Male Wistar rats
Settings: for Inhibition (%): rat brain homogenate supernatant, 37° C., 60 minutes, MDA by TBA method
Protocol: Several typical examples of the compound according to the invention were tested for antioxidant activity according essentially to the Stocks' method. Male Wistar rats (about 10 weeks old) were used. After perfusion for removing the blood from the brain, brain tissues were excised and homogenized in 4 weights of 0.1M phosphate-buffered saline (pH 7.4) with water cooling. The homogenate was centrifuged at 1,000×g for 10 minutes and the supernatant was used. The brain homogenate supernatant was diluted with 10 volumes of phosphate-buffered saline and 500 μl of the dilution was incubated at 37° C. for 60 minutes. The reaction was terminated by dipping the test tube into ice. After further addition 490 μl of 0.1M phosphate-buffered saline, assay was performed by the TBA method. The quantity of lipid peroxides (LPO) was expressed in terms of amount of malonedialdehyde (MDA) per milligram of protein. For protein assay, the Lowry method was used.

Row | Molecule | Inhibition (%) (dose 1 × 10^-3 M) | Inhibition (%) (dose 1 × 10^-4 M) | Inhibition (%) (dose 1 × 10^-5 M) | antioxidant activity (in words) (conclusion from the test results, compared to vitamin E)
1 | CCCCCCCCCCCCCCCCOCC(COP(=O)(O)OC1=C(O)C(C(O)CO)OC1=O)OCCCCCCCCCCCCCCCC (stereo not drawn) [(3), 1,2-O-Dihexadecyl-3-glycerophosphoryl-ascorbic acid] | 100 | 100 | 70.4 | 
2 | CCCCCCCCCCCC(=O)OCC(COC(=O)CCCCCCCCCCC)OP(=O)(O)OC1=C(O)C(C(O)CO)OC1=O (stereo not drawn) [(5), 1,3-O-Dilauroyl-2-glycerophosphoryl-ascorbic acid potassium salt] | 100 | 82.2 | 20.1 | 
3 | CCCCCCCCCCCCCCCCCC(=O)OCC(COP(=O)(O)OC1=C(O)C(C(O)CO)OC1=O)OC(=O)CCCCCCCCCCCCCCCCC (stereo not drawn) [(1), 1,2-O-Distearoyl-3-glycerophosphoryl-ascorbic acid] | 100 | 100 | 25.7 | 
4 | CCCCCCCCCCCC(=O)OCC(COP(=O)(O)OC1=C(O)C(C(O)CO)OC1=O)OC(=O)CCCCCCCCCCC (stereo not drawn) [(4), 1,2-O-Dilauroyl-3-glycerophosphoryl-ascorbic acid potassium salt] | 97.8 | 100 | 8.6 | 
5 | O=C1O[C@H]([C@@H](O)CO)C(O)=C1O [Ascorbic acid, reference compound] | -22.9 | -28.6 |  | rather promoted oxidation
6 | Vitamin E [reference compound] | 94.3 | 62.9 | 28.6 | 
7 | CCCCCCCCCCCCCCCC(=O)OCC(COP(=O)(O)OC1=C(O)C(C(O)CO)OC1=O)OC(=O)CCCCCCCCCCCCCCC (stereo not drawn) [(2), 1,2-O-Dipalmitoyl-3-glycerophosphoryl-ascorbic acid] | 100 | 100 | 55.9 | 
